Experiments:
Format in all cases: in vivo
Kochia (Kochia scoparia) [1] = assay: Test A preemergence; conditions: Bassia scoparia, pre-emergence, 240 h, 0 to 100 scale where 0 is no effect and 100 is complete control, read-out: Kochia plant response rating
How it was run: (§1)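 Preemergence directed soil spray on seeded pots, or postemergence application to plants 2–10 cm, one- to two-leaf. Solvent mixture non-phytotoxic, with surfactant. Scored ~10 d later, visually, 0–100 vs untreated.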

[2] = test system: barnyardgrass (Echinochloa crus-galli); assay: Test A preemergence; conditions: Echinochloa crus-galli, pre-emergence, 240 h, 0 to 100 scale where 0 is no effect and 100 is complete control, read-out: Barnyardgrass plant response rating
How it was run: as §1

[3] = test system: giant foxtail (Setaria faberii); assay: Test A preemergence; conditions: Setaria faberi, pre-emergence, 240 h, 0 to 100 scale where 0 is no effect and 100 is complete control, read-out: Foxtail, Giant plant response rating
How it was run: as §1

[4] = test system: pigweed (Amaranthus retroflexus); assay: Test A preemergence; conditions: Amaranthus retroflexus, pre-emergence, 240 h, 0 to 100 scale where 0 is no effect and 100 is complete control, read-out: Pigweed plant response rating
[5] = test system: ragweed (common ragweed, Ambrosia elatior); assay: Test A preemergence; conditions: Ambrosia artemisiifolia, pre-emergence, 240 h, 0 to 100 scale where 0 is no effect and 100 is complete control, read-out: Ragweed plant response rating
How it was run: as §1

[6] = test system: ryegrass, Italian (Italian ryegrass, Lolium multiflorum); assay: Test A preemergence; conditions: Lolium multiflorum, pre-emergence, 240 h, 0 to 100 scale where 0 is no effect and 100 is complete control, read-out: Ryegrass, Italian plant response rating
How it was run: as §1

[7] = test system: Galium (catchweed bedstraw, Galium aparine); assay: Test A postemergence; conditions: Galium, post-emergence, 240 h
How it was run: as §1

Kochia (Kochia scoparia) [8] = assay: Test A postemergence; conditions: Bassia scoparia, post-emergence, 240 h
How it was run: as §1

[9] = test system: barnyardgrass (Echinochloa crus-galli); assay: Test A postemergence; conditions: Echinochloa crus-galli, post-emergence, 240 h
How it was run: as §1

[10] = test system: blackgrass (Alopecurus myosuroides); assay: Test A postemergence; conditions: Alopecurus myosuroides, post-emergence, 240 h
How it was run: as §1

corn (Zea mays) = assay: Test A postemergence; conditions: Zea mays, post-emergence, 240 h
How it was run: as §1

[11] = test system: giant foxtail (Setaria faberii); assay: Test A postemergence; conditions: Setaria faberi, post-emergence, 240 h
How it was run: as §1

[12] = test system: pigweed (Amaranthus retroflexus); assay: Test A postemergence; conditions: Amaranthus retroflexus, post-emergence, 240 h
How it was run: as §1

[13] = test system: ragweed (common ragweed, Ambrosia elatior); assay: Test A postemergence; conditions: Ambrosia artemisiifolia, post-emergence, 240 h
How it was run: as §1

[14] = test system: ryegrass, Italian (Italian ryegrass, Lolium multiflorum); assay: Test A postemergence; conditions: Lolium multiflorum, post-emergence, 240 h
How it was run: as §1

[15] = test system: wheat (Triticum aestivum); assay: Test A postemergence; conditions: Triticum aestivum, post-emergence, 240 h
How it was run: as §1

[16] = test system: barnyardgrass (Echinochloa crus-galli); assay: Test B flooded paddy test; conditions: Echinochloa crus-galli, 250 g ai/ha, Flood; 0 to 100 scale where 0 is no effect and 100 is complete control; read-out: Barnyardgrass plant response rating
How it was run: (§2)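 Greenhouse paddy pots with 2-leaf stage plants received compound by direct addition to floodwater 3 cm deep, kept at that level. Scored visually at 13–15 d versus controls (0 no effect; 100 complete control).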

[17] = test system: ducksalad (Heteranthera limosa); assay: Test B flooded paddy test; conditions: Heteranthera limosa, 250 g ai/ha, Flood; 0 to 100 scale where 0 is no effect and 100 is complete control; read-out: Ducksalad plant response rating
How it was run: as §2

rice (Oryra sativa) = assay: Test B flooded paddy test; conditions: Oryza sativa, 250 g ai/ha, Flood; 0 to 100 scale where 0 is no effect and 100 is complete control; read-out: Rice plant response rating
How it was run: as §2

[18] = test system: sedge, umbrella (small-flower umbrella sedge, Cyperus difformis); assay: Test B flooded paddy test; conditions: Cyperus difformis, 250 g ai/ha, Flood; 0 to 100 scale where 0 is no effect and 100 is complete control; read-out: Sedge, Umbrella plant response rating
How it was run: as §2

[19] = 125 g ai/ha, preemergence, approx. 10 d

With `C=C(C)c1ccc([C@H]2CN(C)C(=O)[C@@H]2C(=O)Nc2cccc(F)c2C)cc1` [Compound 1150] the pest or weed control at 31 g/ha (Kochia (Kochia scoparia) [1]; 31 g ai/ha, Preemergence) was 0%, the pest or weed control at 125 g/ha (Kochia (Kochia scoparia) [1]; [19]) was 0% and the pest or weed control at 31 g/ha ([2]; 31 g ai/ha, Preemergence) was 0%. For the same compound, the pest or weed control at 125 g/ha [2, 19] was 70%, the pest or weed control at 31 g/ha ([3]; 31 g ai/ha, Preemergence) was 30% and the pest or weed control at 125 g/ha [3, 19] was 90%. It also gave a pest or weed control at 31 g/ha ([4]; 31 g ai/ha, Preemergence) of 0%, a pest or weed control at 125 g/ha [4, 19] of 0% and a pest or weed control at 31 g/ha ([5]; 31 g ai/ha, Preemergence) of 0%. For the same compound, the pest or weed control at 125 g/ha [5, 19] was 0%, the pest or weed control at 31 g/ha ([6]; 31 g ai/ha, Preemergence) was 0% and the pest or weed control at 125 g/ha [6, 19] was 0%. The pest or weed control at 125 g/ha ([7]; 125 g ai/ha, postemergence, visual injury on 0 to 100 scale (0 no effect, 100 complete control), approx. 10 d, read-out: Galium plant response rating) was 20%, the pest or weed control at 31 g/ha ([7]; Postemergence, 31 g ai/ha, visual injury after approx. 10 d, 0 to 100 scale, 0 no effect, 100 complete control, read-out: Plant response rating, Galium) was 0% and the pest or weed control at 125 g/ha (Kochia (Kochia scoparia) [8]; 125 g ai/ha, postemergence, visual injury on 0 to 100 scale (0 no effect, 100 complete control), approx. 10 d, read-out: Kochia plant response rating) was 20%. It also gave a pest or weed control at 31 g/ha (Kochia (Kochia scoparia) [8]; Postemergence, 31 g ai/ha, visual injury after approx. 10 d, 0 to 100 scale, 0 no effect, 100 complete control, read-out: Plant response rating, Kochia) of 0%, a pest or weed control at 125 g/ha ([9]; 125 g ai/ha, postemergence, visual injury on 0 to 100 scale (0 no effect, 100 complete control), approx. 10 d, read-out: Barnyardgrass plant response rating) of 40% and a pest or weed control at 31 g/ha ([9]; Postemergence, 31 g ai/ha, visual injury after approx. 10 d, 0 to 100 scale, 0 no effect, 100 complete control, read-out: Plant response rating, Barnyardgrass) of 0%. For the same compound, the pest or weed control at 125 g/ha ([10]; 125 g ai/ha, postemergence, visual injury on 0 to 100 scale (0 no effect, 100 complete control), approx. 10 d, read-out: Blackgrass plant response rating) was 0%, the pest or weed control at 31 g/ha ([10]; Postemergence, 31 g ai/ha, visual injury after approx. 10 d, 0 to 100 scale, 0 no effect, 100 complete control, read-out: Plant response rating, Blackgrass) was 0% and the plant injury at 125 g/ha (corn (Zea mays); 125 g ai/ha, postemergence, visual injury on 0 to 100 scale (0 no effect, 100 complete control), approx. 10 d, read-out: Corn plant response rating) was 20%. It also gave a Corn plant response rating (crop injury, 0 = no effect, 100 = complete kill) at 31 g/ha (corn (Zea mays); Postemergence, 31 g ai/ha, visual injury after approx. 10 d, 0 to 100 scale, 0 no effect, 100 complete control) of 0%, a pest or weed control at 125 g/ha ([11]; 125 g ai/ha, postemergence, visual injury on 0 to 100 scale (0 no effect, 100 complete control), approx. 10 d, read-out: Foxtail, Giant plant response rating) of 50% and a pest or weed control at 31 g/ha ([11]; Postemergence, 31 g ai/ha, visual injury after approx. 10 d, 0 to 100 scale, 0 no effect, 100 complete control, read-out: Plant response rating, Foxtail, Giant) of 0%. The pest or weed control at 125 g/ha ([12]; 125 g ai/ha, postemergence, visual injury vs untreated controls after approx. 10 d, 0 = no effect, 100 = complete control, read-out: Pigweed plant response rating (0 to 100 scale)) was 0%, the pest or weed control at 31 g/ha ([12]; Postemergence, 31 g ai/ha, visual injury after approx. 10 d, 0 to 100 scale, 0 no effect, 100 complete control, read-out: Plant response rating, Pigweed) was 0% and the pest or weed control at 125 g/ha ([13]; 125 g ai/ha, postemergence, visual injury vs untreated controls after approx. 10 d, 0 = no effect, 100 = complete control, read-out: Ragweed plant response rating (0 to 100 scale)) was 0%. For the same compound, the pest or weed control at 31 g/ha ([13]; Postemergence, 31 g ai/ha, visual injury after approx. 10 d, 0 to 100 scale, 0 no effect, 100 complete control, read-out: Plant response rating, Ragweed) was 0%, the pest or weed control at 125 g/ha ([14]; 125 g ai/ha, postemergence, visual injury vs untreated controls after approx. 10 d, 0 = no effect, 100 = complete control, read-out: Ryegrass, Italian plant response rating (0 to 100 scale)) was 0% and the pest or weed control at 31 g/ha ([14]; Postemergence, 31 g ai/ha, visual injury after approx. 10 d, 0 to 100 scale, 0 no effect, 100 complete control, read-out: Plant response rating, Ryegrass, Italian) was 0%. It also gave a plant injury at 125 g/ha ([15]; 125 g ai/ha, postemergence, visual injury vs untreated controls after approx. 10 d, 0 = no effect, 100 = complete control, read-out: Wheat plant response rating (0 to 100 scale)) of 0%, a plant injury at 31 g/ha ([15]; Postemergence, 31 g ai/ha, visual injury after approx. 10 d, 0 to 100 scale, 0 no effect, 100 complete control, read-out: Plant response rating, Wheat) of 0% and a pest or weed control at 250 g/ha [16] of 0%. For the same compound, the pest or weed control at 250 g/ha [17] was 0%, the pest or weed control at 250 g/ha (rice (Oryra sativa)) was 0% and the pest or weed control at 250 g/ha [18] was 0%.

From patent US12077503B2, “Substituted cyclic amides and their use as herbicides” (FMC CORPORATION, priority 2015, dated 2024)
